Experimental data as given in EP1114060B1, “PROCESS FOR PRODUCING PEPTIDES FROM BIOLOGICAL FLUIDS AND PEPTIDES […] SAID PROCESS” (NIZO food research, priority 1998, dated 2003).
Bridges are numbered along the chain shown (N, C = ends). Where no end group is shown, it is not given here. [ ]: non-standard residue; d: D form. Dhb = C/C=C(\N)C(=O)O; Dha = C=C(N)C(=O)O

Tested on: Micrococcus flavus DSM 1790
Assay: plate diffusion assay for antibacterial activity
Assay type: cell-based
Settings: fraction desorbed with 1 M KCI in phosphate buffer, pH 7.0
Method: Antibacterial activities of the peptide mixtures and/or isolated peptides were determined by a plate diffusion assay using Micrococcus flavus DSM 1790 as indicator organism. M. flavus was grown in MF broth (0.1% sucrose, 1% peptone, 0.3% meat extract, 0.2% NaCI, 0.15% yeast extract pH 7.0). Peptide mixtures were tested at concentrations from 0.2 mg/ml to 50 mg/ml in bidistilled water.

Substance: nisin A (I[Dhb]SI[Dha]LCTPGCKTGALMGCNMKTATCHCSIHV[Dha]K; bridge 23-26, 13-19, 8-11, 25-28, 3-7; not fully specified (bridges); UniProt P13068 24-57, looked up) [lantibiotic]
- activity against Micrococcus flavus: showed activity
